From US8551972B2, “Agonists of A2A adenosine receptors for treating recurrent tumor growth” (Adenosine Therapeutics, LLC, priority 2007, dated 2013)
Entries after “also recorded” stand apart in the source; their conditions may differ.

Tested on: C26 colorectal carcinoma liver metastases
Experiment: Mouse model of hepatic ischemia/reperfusion (I/R)-accelerated outgrowth of C26 colorectal liver metastases
Format: in vivo, mouse (male Balb/C)
Settings: for ratio of hepatic replacement area (HRA) values in ischemic (clamped) left liver lobes versus non-ischemic right and median liver lobes: FIG. 4, I/R-subjected mice, day 10, sham about 1, untreated I/R about 2.5-fold; for accelerated (necrosis-associated) tumor growth in the clamped left liver lobes following I/R: left lobar I/R on day 5, livers day 10, ZM241385 1 micro-g/kg bolus + 10 ng/kg/min minipump, 3 days
From the text: A mouse model has been enabled in which selective temporary occlusion of blood flow into the left liver lobe results in a profound acceleration of tumor growth in the clamped liver lobes, but not in the unclamped liver lobes. An A2A receptor agonist was then studied to determine its effect on the accelerated tumor growth.
• Male Balb/C mice (10-12 weeks) are housed under standard laboratory conditions with free access to water and chow and a 12-hour dark-light cycle. 2. Before the Experiment: Cell Culture • The murine colon carcinoma cell line C26 is cultured in Dulbecco's modified Eagle's medium supplemented with 5% heat-inactivated fetal calf serum, penicillin (100 units/ml) and streptomycin (100 μg/ml) in a 5% carbon dioxide environment. 3. Day 0: Induction of Liver Metastases • Confluent cultures of the C26 cell line are harvested by brief trypsinization (0.05 trypsin in 0.02% EDTA). • After centrifugation, single cell suspensions are prepared in PBS to a final concentration of 5×10^4 cells/100 μl. • Cell viability is determined by trypan blue staining, and should be ≧98%. • The induction of liver metastases is performed under inhalation anesthesia with a 1.5-2% isoflurane/O2 mixture using a mask. • Buprenorfine (3 μg/mouse) is administered intramuscularly prior to surgery to provide sufficient intra- and postoperative analgesia. • Surgical procedures are performed under aseptic conditions. • Body temperature is maintained at 36.5-37.5° C. by placing the animals on a heated table and covering them by aluminium foil. • Through a left lateral flank incision, 5×10^4 C26 colorectal carcinoma cells are injected into the splenic parenchyma (within an hour after trypsinisation). • After ten minutes, the spleen is removed to prevent intrasplenic tumor growth. • After the procedure a small amount of saline is left in the abdominal cavity and the peritoneum and skin are separately closed with 5.0 vicryl. • Animals are allowed to recover from anesthesia under standard laboratory conditions and are allowed free access to water and chow. 4. Day 0-5: • Micrometastases are allowed to develop throughout the liver for 5 days. 5. Day 5: Marine Model of Hepatic I/R • The induction of hepatic I/R is performed under inhalation anesthesia with a 1.5-2% isoflurane/O2 mixture using a mask. • Buprenorfine (3 μg/mouse) is administered intramuscularly prior to surgery to provide sufficient intra- and postoperative analgesia. • Surgical procedures are performed under aseptic conditions. • Body temperature is maintained at 36.5-37.5° C. by placing the animals on a heated table and covering them by aluminium foil. • ATL-313 solutions are prepared and suspended in osmotic minipumps (Alzet) at a dose of 3 ng/kg/min. Minipumps are placed in normal saline at 37° C. for at least 4 hours prior to the operation, to allow immediate drug delivery. • After laparotomy, mice receive an intraperitoneal bolus injection of 1 ng/kg ATL-313. • A control group received the A2AR antagonist ZM241385 as an intraoperative bolus (1 micro-g/kg) and subsequently continuously using osmotic intraperitoneal minipumps (10 ng/kg/min; 3 days). • Sham operated mice undergo laparotomy with exposure of the liver but without interruption of hepatic flow. • Partial hepatic I/R is induced by occluding the vascular inflow of the left lateral liver lobe for 45 minutes, corresponding to approximately 40% of the liver mass. • Surgical foil is placed over the laparotomy wound to avoid dehydration. • After removal of the clamps a small amount of saline is left in the abdominal cavity • The peritoneum and skin are separately closed with 5.0 vicryl. 6. Day 5-10: • Micrometastases are allowed to grow out to macrometastases (approximately 10-20% of the non-clamped lobes at day 10) for 5 days 7. Day 10: • Livers were harvested, fixed in formalin, and embedded in paraffin. Tissue sections were stained with H&E and the following parameters were assessed by an operator who was blinded to treatment. • 1. […]

[1] = ATL-313 1 ng/kg bolus + 3 ng/kg/min minipump

Compound | ratio of hepatic replacement area (HRA) values in ischemic (clamped) left liver lobes versus non-ischemic right and median liver lobes | tissue necrosis (liver) (left lobar I/R on day 5 (45 min clamping), livers harvested day 10, H&E, ATL-313 1 ng/kg i.p. bolus + 3 ng/kg/min osmotic minipump) | accelerated (necrosis-associated) tumor growth in the clamped left liver lobes following I/R [1] | accelerated (necrosis-associated) tumor growth in the clamped left liver lobes following I/R (ATL-313 1 ng/kg bolus + 3 ng/kg/min minipump, listed as ATL) | inflammation following I/R (left lobar I/R on day 5, ATL-313 1 ng/kg bolus + 3 ng/kg/min minipump)
COC(=O)N1CCC(CC#Cc2nc(N)c3ncn(C4OC(C(=O)NC5CC5)C(O)C4O)c3n2)CC1 (stereo not shown) [ATL313, 4-{3-[6-Amino-9-(5-cyclopropylcarbamoyl-3,4-dihydroxy-tetrahydro-furan-2-yl)-9H-purin-2-yl]-prop-2-ynyl}-piperidine-1-carboxylic Acid methyl ester] | 1 | prevents; also recorded: almost completely prevented | prevents; also recorded: almost completely prevented | prevents the increase in tumor growth | almost completely prevented
Nc1nc(NCCc2ccc(O)cc2)nc2nc(-c3ccco3)nn12 [ZM241385, reference compound] | increasing the left-to-right/median ratio, although this difference did not reach statistical significance | – | appears to aggravate tumor growth | – | –
